According to PubChem BioAssay AID1344 (Sanford-Burnham Center for Chemical Genomics, 2008):

Tested on: CSM14.1 thapsigargin death, annexin V/PI flow, 24 h
Test: annexin V/PI survival after thapsigargin – cell-based, undifferentiated CSM14.1, flow cytometry, orthogonal assay for ER stress death inhibitor project, late-stage follow-up (AID 1344)
Conditions: at 25 µM; stronger effect = higher value

| SMILES | survival |
| --- | --- |
| COc1ccc(C2CC(=O)C3=C(C2)Nc2ccccc2NC3c2cc(C)ccc2C)cc1 (stereo unspecified) | 95% |
| COc1ccc(C2CC(=O)C3=C(C2)Nc2ccccc2NC3c2cccc(Br)c2)cc1OC (stereo unspecified) | 96% |
| COc1ccc(C2CC(=O)C3=C(C2)Nc2ccccc2NC3c2cccc(Oc3ccccc3)c2)cc1OC (stereo unspecified) | 95% |
| CCOc1cccc(C2Nc3ccccc3NC3=C2C(=O)CC(c2ccc(OC)cc2)C3)c1 (stereo unspecified) | 90% |
| CCCOc1ccc(C2Nc3ccccc3NC3=C2C(=O)CC(c2ccc(OC)c(OC)c2)C3)cc1 (stereo unspecified) | 92% |
| COc1ccc(C2CC(=O)C3=C(C2)Nc2ccccc2NC3c2ccccc2C(F)(F)F)cc1OC (stereo unspecified) | 96% |
| O=C1CC(c2ccccc2)CC2=C1C(c1c(F)cccc1Cl)Nc1ccccc1N2 (stereo unspecified) | 96% |
| CSc1ccc(C2Nc3ccccc3NC3=C2C(=O)CC(c2ccccc2)C3)cc1 (stereo unspecified) | 96% |
| CC1(C)CC(=O)C2=C(C1)Nc1ccccc1NC2c1ccc(-c2ccccc2)cc1 (stereo unspecified) | 97% |
| CCOc1cc(C2Nc3ccccc3NC3=C2C(=O)CC(c2ccc(OC)cc2)C3)cc(Cl)c1O (stereo unspecified) | 93% |
| COc1ccc(C2CC(=O)C3=C(C2)Nc2ccccc2NC3c2cccc(C(F)(F)F)c2)cc1OC (stereo unspecified) | 95% |
